Assay results as given in patent publication US8058264B2, “Pharmaceutical compositions comprising CB1 cannabinoid receptor antagonists and potassium channel openers for the treatment of obesity and related conditions” (Abbott Products GmbH, priority 2004, dated 2011).

target: T1, hamster SUR1 (Cricetus cricetus, UniProt Q09427); assay: Competitive binding to sulfonylurea and KCO sites of SUR1 ([3H]glibenclamide displacement, COS-cell membranes); conditions: SUR1 versus SUR2 selectivity, in words
T1 construct: expressed in transfected cells; host or cells: COS-1 cells, transient transfection (pcDNA vector), membrane preparation
Protocol: Competitive binding experiments were performed to characterize the affinity of the test compounds for the binding sites for sulfonylureas and KATP channel openers (=KCOs) on hamster SUR1. To assess the affinity for the sulfonylurea site membranes from COS-cells transiently expressing hamster SUR1 were incubated in the presence of [^3H]glibenclamide with increasing concentrations of test compounds. […] Per curve 9-15 distinct concentrations were tested covering the relevant range. All measurements were repeated at least 5 times in independent experiments.
[^3H]glibenclamide (specific activity 51 Ci mmol^−1) was obtained from NEN (Dreieich, Germany). If suitable, stock solutions were prepared in dimethylsulfoxide with a final solvent concentration in the media below 1%.
SUR- or Kir6.x isoforms were used either subcloned in the pcDNA (hamster SUR1, mouse Kir6.2) or pCMV vector (rat SUR2A, SUR2B).
For transfection the cells were incubated 4 hours in a Tris-buffered salt solution containing DNA (5-10 μg/ml) plus DEAE-dextran (1 mg/ml), 2 min in HEPES-buffered salt solution plus dimethylsulfoxide (10%) and 4 hours in DMEM-HG plus chloroquine (100 μM). Cells were then returned to DMEM-HG plus 10% FCS. […] For binding experiments resuspended membranes (final protein concentration 5-50 μg/ml) were incubated in “Tris-buffer” (50 mM, pH 7.4) containing either [^3H]glibenclamide (final concentration 0.3 nM or 3 nM and nonspecific binding defined by 100 nM or 1 μM glibenclamide for SUR1 or SUR2Y1205S-isoforms, respectively) or [^3H]P1075 (final concentration 3 nM, nonspecific binding defined by 100 μM pinacidil) and increasing concentrations of the test compounds. […] Incubations were carried out for 1 h at room temperature and were terminated by rapid filtration through Whatman GF/B filters.
The inhibition constant (Ki value) of the test substances was calculated from the respective IC50 value, and was stated as the negative logarithmised value thereof (pKi).

T1 sequence (Q09427 whole entry): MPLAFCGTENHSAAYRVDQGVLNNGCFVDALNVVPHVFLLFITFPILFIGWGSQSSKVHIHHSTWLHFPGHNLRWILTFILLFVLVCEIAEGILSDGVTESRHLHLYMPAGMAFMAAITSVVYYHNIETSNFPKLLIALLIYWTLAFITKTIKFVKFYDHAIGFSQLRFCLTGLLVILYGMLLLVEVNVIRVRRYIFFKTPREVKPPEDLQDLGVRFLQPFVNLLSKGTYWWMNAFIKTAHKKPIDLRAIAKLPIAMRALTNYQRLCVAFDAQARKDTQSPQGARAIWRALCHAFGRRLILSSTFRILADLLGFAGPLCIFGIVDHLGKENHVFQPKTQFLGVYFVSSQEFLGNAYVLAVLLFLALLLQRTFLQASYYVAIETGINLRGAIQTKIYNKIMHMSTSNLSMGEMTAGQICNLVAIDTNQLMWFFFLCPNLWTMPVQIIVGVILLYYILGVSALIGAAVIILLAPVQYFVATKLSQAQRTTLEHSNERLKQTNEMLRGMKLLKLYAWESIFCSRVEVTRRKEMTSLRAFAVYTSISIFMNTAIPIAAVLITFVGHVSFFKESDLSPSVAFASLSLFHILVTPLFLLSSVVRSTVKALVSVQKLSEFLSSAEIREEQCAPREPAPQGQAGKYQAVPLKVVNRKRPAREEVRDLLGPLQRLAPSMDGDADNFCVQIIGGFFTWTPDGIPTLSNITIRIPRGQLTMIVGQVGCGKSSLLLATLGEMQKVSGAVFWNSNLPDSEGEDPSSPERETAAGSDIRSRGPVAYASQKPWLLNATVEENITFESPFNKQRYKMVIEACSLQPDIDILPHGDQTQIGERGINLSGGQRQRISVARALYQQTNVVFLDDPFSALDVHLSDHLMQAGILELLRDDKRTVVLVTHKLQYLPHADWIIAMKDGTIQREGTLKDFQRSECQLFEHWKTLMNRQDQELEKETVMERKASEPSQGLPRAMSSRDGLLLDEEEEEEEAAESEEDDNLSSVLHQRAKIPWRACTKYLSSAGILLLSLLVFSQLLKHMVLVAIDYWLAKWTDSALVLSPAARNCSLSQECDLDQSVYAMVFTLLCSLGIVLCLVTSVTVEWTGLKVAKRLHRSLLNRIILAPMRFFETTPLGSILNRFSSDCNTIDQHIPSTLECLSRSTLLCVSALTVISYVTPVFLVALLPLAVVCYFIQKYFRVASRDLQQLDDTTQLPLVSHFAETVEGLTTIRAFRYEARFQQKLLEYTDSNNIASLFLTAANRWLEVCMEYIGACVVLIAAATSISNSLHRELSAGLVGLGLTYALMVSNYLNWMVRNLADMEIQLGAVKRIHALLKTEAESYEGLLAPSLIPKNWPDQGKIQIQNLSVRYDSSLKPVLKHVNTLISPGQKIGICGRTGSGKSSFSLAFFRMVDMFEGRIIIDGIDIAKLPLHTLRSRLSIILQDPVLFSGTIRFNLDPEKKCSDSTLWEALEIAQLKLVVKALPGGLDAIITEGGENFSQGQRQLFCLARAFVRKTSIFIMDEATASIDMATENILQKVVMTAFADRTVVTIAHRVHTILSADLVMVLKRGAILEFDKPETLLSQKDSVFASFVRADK

Compound | pki (SUR1) compared with pki (SUR2)
CCCCC(C)(O)c1nc(-c2ccc(Cl)cc2Cl)n(-c2ccc(Cl)cc2)c1C (stereo not drawn) [2-[1-(4-chlorophenyl)-2-(2,4-dichlorophenyl)-5-methyl-1H-imidazol-4-yl]hexan-2-ol] | pki (SUR1) larger than pki (SUR2)
CNC(=NS(=O)(=O)c1ccc(Cl)cc1)N1CC(c2cccnc2)C(c2ccc(Cl)cc2)=N1 (stereo not drawn) [3-(4-chlorophenyl)-N′-[(4-chlorophenyl)sulfonyl]-N-methyl-4-pyridin-3-yl-4,5-dihydro-1H-pyrazole-1-carboximidamide] | pki (SUR1) larger than pki (SUR2)
CNC(=NS(=O)(=O)N(C)C)N1CC(c2cccc(F)c2)C(c2ccc(Cl)cc2)=N1 (stereo not drawn) [3-(4-chlorophenyl)-N′-[(dimethyl-amino)sulfonyl]-4-(3-fluorophenyl)-N-methyl-4,5-dihydro-1H-pyrazole-1-carboximidamide] | pki (SUR1) larger than pki (SUR2)
O=S(=O)(N=C(NCc1cccnc1)N1CC(c2ccccc2)C(c2ccc(Cl)cc2)=N1)c1ccc(Cl)cc1 (stereo not drawn) [3-(4-chlorophenyl)-N′-[(4-chlorophenyl)sulfonyl]-4-phenyl-N-(pyridin-3-ylmethyl)-4,5-dihydro-1H-pyrazole-1-carboximidamide] | pki (SUR1) larger than pki (SUR2)
CCCCCCC(C)(C)c1ccc([C@@H]2C[C@H](O)CC[C@H]2CCCO)c(O)c1 [5-(1,1-dimethylheptyl)-2-[(1R,2R,5R)-5-hydroxy-2-(3-hydroxypropyl)cyclohexyl]-phenol] | pki (SUR1) larger than pki (SUR2)
CCCCCc1nc(-c2ccc(Cl)cc2Cl)n(-c2ccc(Cl)cc2)c1C [1-(4-chlorophenyl)-2-(2,4-dichlorophenyl)-5-methyl-4-pentyl-1H-imidazole] | pki (SUR1) larger than pki (SUR2)
CNC(=NS(=O)(=O)N1CCOCC1)C1=NN(c2ccc(Cl)cc2Cl)C(c2ccccc2)C1 (stereo not drawn) [1-(2,4-dichlorophenyl)-N-methyl-N′-(morpholin-4-ylsulfonyl)-5-phenyl-4,5-dihydro-1H-pyrazole-3-carboximidamide] | pki (SUR1) larger than pki (SUR2)
NC(=NS(=O)(=O)c1ccc(Cl)cc1)N1CC(c2ccccc2)C(c2ccc(Cl)cc2)=N1 (stereo not drawn) [3-(4-chlorophenyl)-N′-[(4-chlorophenyl)sulfonyl]-4-phenyl-4,5-dihydro-1H-pyrazole-1-carboximidamide] | pki (SUR1) larger than pki (SUR2)
CS(=O)(=O)C(=C1CN(C(c2ccc(Cl)cc2)c2ccc(Cl)cc2)C1)c1cc(F)cc(F)c1 [1-[bis(4-chlorophenyl)methyl]-3-[(3,5-difluorophenyl)(methylsulfonyl)-methylene]azetidine] | pki (SUR1) larger than pki (SUR2)
CNC(=NS(=O)(=O)N1CCCCC1)C1=NN(c2ccc(Cl)cc2)C(c2ccccc2)C1 (stereo not drawn) [1-(4-chlorophenyl)-N-methyl-5-phenyl-N′-(piperidin-1-yl-sulfonyl)-4,5-dihydro-1H-pyrazole-3-carboximidamide] | pki (SUR1) larger than pki (SUR2)
O=C1c2ccccc2S(=O)(=O)N1C1CN(C(c2ccc(Cl)cc2)c2ccc(Cl)cc2)C1 [2-{1-[bis(4-chlorophenyl)methyl]azetidin-3-yl}-1,2-benzisothiazol-3(2H)-one 1,1-dioxide] | pki (SUR1) larger than pki (SUR2)
CN(C)S(=O)(=O)N=C(NCCF)N1CC(c2ccccc2)C(c2ccc(Cl)cc2)=N1 (stereo not drawn) [3-(4-chlorophenyl)-N′-[(dimethylamino)sulfonyl]-N-(2-fluoro-ethyl)-4-phenyl4,5-dihydro-1H-pyrazole-1-carboximidamide] | pki (SUR1) larger than pki (SUR2)
CNC(=NS(=O)(=O)N1CCOCC1)N1CC(c2ccccc2)C(c2ccc(Cl)cc2)=N1 (stereo not drawn) [3-(4-chlorophenyl)-N-methyl-N′-(morpholin-4-ylsulfonyl)-4-phenyl-4,5-dihydro-1H-pyrazole-1-carboximidamide] | pki (SUR1) larger than pki (SUR2)
CCN(CC)C(=O)c1cn(-c2ccc(Cl)cc2)c(-c2ccc(Cl)cc2Cl)n1 [1-(4-chlorophenyl)-2-(2,4-dichlorophenyl)-N,N-diethyl-1H-imidazole-4-carboxamide] | pki (SUR1) larger than pki (SUR2)
CCCCCNC(=O)c1nc(-c2ccc(Cl)cc2Cl)n(-c2ccc(Br)cc2)c1CC [1-(4-bromophenyl)-2-(2,4-dichlorophenyl)-5-ethyl-N-pentyl-1H-imidazole-4-carboxamide] | pki (SUR1) larger than pki (SUR2)
Cc1c(NC(=O)c2ccccc2)nc(-c2ccc(Cl)cc2Cl)n1-c1ccc(Cl)cc1 [N-[1-(4-chlorophenyl)-2-(2,4-di-chlorophenyl)-5-methyl-1H-imidazol-4-yl]benzamide] | pki (SUR1) larger than pki (SUR2)
N[C@@H](Cc1ccc(Cl)c(Cl)c1)C(=O)N1CC(c2ccccc2)C(c2ccc(Cl)cc2)=N1 (stereo partly drawn) [(2S)-1-[3-(4-chlorophenyl)-4-phenyl-4,5-dihydro-1H-pyrazol-1-yl]-3-(3,4-dichloro-phenyl)-1-oxopropan-2-amine] | pki (SUR1) larger than pki (SUR2)
NC(=NS(=O)(=O)c1ccc(Cl)cc1)N1C[C@H](c2ccccc2)C(c2ccc(Cl)cc2)=N1 [(4S)-3-(4-chlorophenyl)-N′-[(4-chlorophenyl)sulfonyl]-4-phenyl-4,5-dihydro-1H-pyrazole-1-carboximidamide] | pki (SUR1) larger than pki (SUR2)
O=C(NS(=O)(=O)c1ccc(Cl)cc1)c1cc(-c2ccc(Br)cc2)n(-c2ccc(Cl)cc2Cl)n1 [5-(4-bromophenyl)-N-[(4-chlorophenyl)sulfonyl]-1-(2,4-dichlorophenyl)-1H-pyrazole-3-carboxamide] | pki (SUR1) larger than pki (SUR2)
CN1CCC(CNC(=NS(=O)(=O)c2ccc(Cl)cc2)N2CC(c3ccccc3)C(c3ccc(Cl)cc3)=N2)C1 (stereo not drawn) [3-(4-chlorophenyl)-N′-[(4-chlorophenyl)sulfonyl]-N-[(1-methylpyrrolidin-3-yl)-methyl]-4-phenyl-4,5-dihydro-1H-pyrazole-1-carboximidamide] | pki (SUR1) larger than pki (SUR2)
O=C(NN1CCCCC1)c1nn(-c2ccc(Cl)cc2Cl)c2c1CCCc1cc(Cl)ccc1-2 [8-chloro-1-(2,4-dichlorophenyl)-N-piperidin-1-yl-1,4,5,6-tetrahydrobenzo[6,7]cyclohepta[1,2-c]pyrazole-3-carboxamide] | pki (SUR1) larger than pki (SUR2)
CCc1c(C(=O)NN2CCCCC2)nc(-c2ccc(Cl)cc2Cl)n1-c1ccc(Br)cc1 [1-(4-bromophenyl)-2-(2,4-dichloro-phenyl)-5-ethyl-N-piperidin-1-yl-1H-imidazole-4-carboxamide] | pki (SUR1) larger than pki (SUR2)
CSc1c(C(=O)NC2CCCCC2)nc(-c2ccc(Cl)cc2Cl)n1-c1ccc(Cl)cc1 [1-(4-chlorophenyl)-N-cyclohexyl-2-(2,4-dichlorophenyl)-5-(methylthio)-1H-imidazole-4-carboxamide] | pki (SUR1) larger than pki (SUR2)
CCC1CN=C(N2CC(c3ccccc3)C(c3ccc(Cl)cc3)=N2)O1 (stereo not drawn) [2-[3-(4-chlorophenyl)-4-phenyl-4,5-dihydro-1H-pyrazol-1-yl]-5-ethyl-4,5-dihydro-1,3-oxazole] | pki (SUR1) larger than pki (SUR2)
